The source of these data is US10759751B2, “Substituted spirocyclohexanes as muscarinic M1 receptor and/or M4 receptor agonists” (Heptares Therapeutics Limited, priority 2016, dated 2020).

Structures are written as SMILES. Where only a bound is given, the exact number is not on record here.

Assay type in all cases: cell-based
In test [1] the target is T1, human muscarinic M1 receptor (Homo sapiens, UniProt P11229).
T1 sequence (P11229 1-460): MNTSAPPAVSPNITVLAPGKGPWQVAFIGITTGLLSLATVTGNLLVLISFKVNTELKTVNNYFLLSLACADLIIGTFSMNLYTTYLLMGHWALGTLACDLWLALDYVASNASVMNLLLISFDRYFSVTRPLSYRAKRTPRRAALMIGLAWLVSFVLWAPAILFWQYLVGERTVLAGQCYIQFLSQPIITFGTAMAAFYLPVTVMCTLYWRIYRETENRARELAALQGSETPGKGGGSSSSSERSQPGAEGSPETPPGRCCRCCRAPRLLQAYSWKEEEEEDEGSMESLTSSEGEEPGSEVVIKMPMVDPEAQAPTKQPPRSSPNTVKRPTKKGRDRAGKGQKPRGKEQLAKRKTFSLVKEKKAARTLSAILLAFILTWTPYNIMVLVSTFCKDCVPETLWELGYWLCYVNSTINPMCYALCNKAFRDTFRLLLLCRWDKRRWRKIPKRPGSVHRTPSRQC
Description: Alphascreen Surefire phospho-ERK1/2 functional assay, M1. The conditions noted are these: for EC50: CHO cells stably expressing human M1, phospho-ERK1/2, read-out: pEC50 M1 (converted); for Emax: CHO, read-out: M1 % Emax cf. ACh, CHO cells stably expressing human M1, Emax relative to ACh. As to the method: (§1) Functional assays were performed using the Alphascreen Surefire phospho-ERK1/2 assay (Crouch & Osmond, Comb. Chem. High Throughput Screen, 2008). ERK1/2 phosphorylation is a downstream consequence of both Gq/11 and Gi/o protein coupled receptor activation, making it highly suitable for the assessment of M1, M3 (Gq/11 coupled) and M2, M4 receptors (Gi/o coupled), rather than using different assay formats for different receptor subtypes. CHO cells stably expressing the human muscarinic M1, M2, M3 or M4 receptor were plated (25K/well) onto 96-well tissue culture plates in MEM-alpha+10% dialysed FBS. Once adhered, cells were serum-starved overnight. Agonist stimulation was performed by the addition of 5 μL agonist to the cells for 5 min (37° C.). Media was removed and 50 μL of lysis buffer added. After 15 min, a 4 μL sample was transferred to 384-well plate and 7 μL of detection mixture added. Plates were incubated for 2 h with gentle agitation in the dark and then read on a PHERAstar plate reader.
(§2) pEC50 and Emax figures were calculated from the resulting data for each receptor subtype.
On the technique in general: Bead proximity is the source of the signal in Alpha formats.

The target of test [2] is T2, human muscarinic M2 receptor (Homo sapiens, UniProt P08172).
T2 sequence (P08172 1-466): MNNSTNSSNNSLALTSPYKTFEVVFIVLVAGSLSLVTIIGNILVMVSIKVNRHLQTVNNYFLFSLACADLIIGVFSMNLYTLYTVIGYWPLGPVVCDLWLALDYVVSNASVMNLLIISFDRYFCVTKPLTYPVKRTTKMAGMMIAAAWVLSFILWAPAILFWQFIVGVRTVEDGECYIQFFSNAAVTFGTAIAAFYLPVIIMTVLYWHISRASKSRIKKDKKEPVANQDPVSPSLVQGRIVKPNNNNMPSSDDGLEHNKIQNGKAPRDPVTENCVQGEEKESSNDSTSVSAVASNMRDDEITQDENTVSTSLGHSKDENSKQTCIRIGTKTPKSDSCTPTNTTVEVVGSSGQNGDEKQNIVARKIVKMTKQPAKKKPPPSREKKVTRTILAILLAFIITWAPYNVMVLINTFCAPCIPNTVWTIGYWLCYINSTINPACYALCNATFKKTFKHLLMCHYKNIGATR
Description: Alphascreen Surefire phospho-ERK1/2 functional assay, M2. As to conditions: for EC50: CHO cells stably expressing human M2, phospho-ERK1/2, read-out: pEC50 M2 (converted); for Emax: CHO, read-out: M2 % Emax cf. ACh. As to the method: as §1, §2

Test [3] concerns the target T3, human muscarinic M3 receptor (Homo sapiens, UniProt P20309).
T3 construct: expressed in transfected cells
In words: Alphascreen Surefire phospho-ERK1/2 functional assay, M3. The conditions noted are these: for EC50: phospho-ERK1/2, read-out: pEC50 M3 (converted); for Emax: CHO, read-out: M3 % Emax cf. ACh. As for the experimental part:
as §1, §2

Test [4] has as its target T4, human muscarinic M4 receptor (Homo sapiens, UniProt P08173).
T4 construct: expressed in transfected cells
T4 sequence (P08173 1-479): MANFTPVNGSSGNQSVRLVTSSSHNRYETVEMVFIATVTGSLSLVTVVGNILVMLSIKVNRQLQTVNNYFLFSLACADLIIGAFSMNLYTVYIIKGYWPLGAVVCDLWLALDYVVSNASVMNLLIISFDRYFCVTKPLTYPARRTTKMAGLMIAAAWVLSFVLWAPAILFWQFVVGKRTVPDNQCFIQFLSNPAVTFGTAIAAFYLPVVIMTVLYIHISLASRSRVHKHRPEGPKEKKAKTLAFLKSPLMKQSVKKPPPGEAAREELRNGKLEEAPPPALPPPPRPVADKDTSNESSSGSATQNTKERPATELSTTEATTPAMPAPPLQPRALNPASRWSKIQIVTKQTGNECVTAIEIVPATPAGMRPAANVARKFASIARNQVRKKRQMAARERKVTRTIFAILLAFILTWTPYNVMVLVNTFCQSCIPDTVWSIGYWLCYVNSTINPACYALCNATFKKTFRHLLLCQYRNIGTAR
In words: Alphascreen Surefire phospho-ERK1/2 functional assay, M4. The conditions noted are these: for EC50 / M4 % Emax cf. ACh: CHO cells stably expressing human M4; for EC50: phospho-ERK1/2, read-out: pEC50 M4 (converted); for Emax: CHO, read-out: M4 % Emax cf. ACh, CHO cells stably expressing human M4; for Emax / M4 % Emax cf. ACh: Emax relative to ACh. As for the experimental part:
as §1, §2

Where [5] appears, read: CHO cells stably expressing human M3.

T3 sequence (P20309 whole entry): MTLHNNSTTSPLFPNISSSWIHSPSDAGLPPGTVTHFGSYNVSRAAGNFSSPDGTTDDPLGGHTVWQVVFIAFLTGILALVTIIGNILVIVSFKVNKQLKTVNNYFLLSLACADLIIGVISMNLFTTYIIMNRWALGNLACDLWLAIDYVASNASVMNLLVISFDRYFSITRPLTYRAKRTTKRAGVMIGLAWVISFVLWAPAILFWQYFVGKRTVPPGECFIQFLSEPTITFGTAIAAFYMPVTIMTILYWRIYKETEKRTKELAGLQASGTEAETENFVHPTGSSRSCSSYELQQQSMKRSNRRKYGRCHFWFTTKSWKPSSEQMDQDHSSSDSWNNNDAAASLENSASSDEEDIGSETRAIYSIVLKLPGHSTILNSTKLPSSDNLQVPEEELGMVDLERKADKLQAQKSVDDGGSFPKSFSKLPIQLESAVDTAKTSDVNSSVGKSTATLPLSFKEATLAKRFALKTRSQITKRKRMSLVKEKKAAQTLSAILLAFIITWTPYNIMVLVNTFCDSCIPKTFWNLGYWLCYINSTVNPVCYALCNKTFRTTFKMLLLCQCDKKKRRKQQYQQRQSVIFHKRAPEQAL

On to `CCOC(=O)N1CCCN(C2CCC(C#N)(c3ccccn3)CC2)CC1` (mixture of isomers) [3-11 mixture of isomers], for which the EC50 in test [1] was 72.4 nM; in test [2], more than 20000 nM; in test [3] (setting [5]), more than 20000 nM; in test [4], 389 nM. For the same molecule, the Emax came to 97% in test [1], 43% in test [2], 15% in test [3] and 99% in test [4].

Consider `Cc1noc([C@@H]2CCCN(C3CCC4(CC3)C(=O)Nc3ccccc34)C2)n1` (single isomer, unassigned) [22-1 Isomer 1], for which the EC50 is 229 nM in test [1], more than 20000 nM in test [2], more than 20000 nM in test [3] (setting [5]) and 398 nM in test [4]. The Emax in test [1] came to 83%; in test [2], 11%; in test [3], 11%; in test [4] it was 47%.

On to `COc1ccc2c(c1)C1(CCC(N3CCC4(CC(c5nc(C)no5)C4)C3)CC1)C(=O)N2` (single isomer, unassigned) [26-2 Isomer 1], for which the EC50 is 16.2 nM in test [1], more than 20000 nM in test [2], more than 20000 nM in test [3] (setting [5]) and 81.3 nM in test [4]. Also, the Emax in test [1] was 38%; in test [2], 6%; in test [3], 4%. Further, the “M4 % Emax cf. ACh” value in test [4] is 35%.

For `N#CC1(c2ccccc2)CCC(N2CC3(CC(c4nc(C(F)(F)F)no4)C3)C2)CC1` (single isomer, unassigned) [20-1 Isomer 2], the EC50 in test [1] is 219 nM; in test [2], more than 20000 nM; in test [3] (setting [5]), more than 20000 nM; in test [4], 126 nM. Further, the maximal effect (Emax) in test [1] was found to be 78%; in test [2], 61%; in test [3], 30%; in test [4], 58%.

For `O=C1Nc2ccccc2C12CCC(N[C@@H]1CC[C@H](c3nc(C(F)(F)F)no3)C1)CC2` (single isomer, unassigned) [24-1 Isomer 1], the EC50 in test [1] was 219 nM; in test [2], more than 20000 nM; in test [3] (setting [5]), more than 20000 nM; in test [4] it was 105 nM. Besides, the Emax in test [1] was 89%; in test [2] it was 16%; in test [3], 23%; in test [4], 62%.

For `CCOC(=O)N[C@H]1CCN(C2CCC3(CC2)C(=O)Nc2cccc(C)c23)C1` (single isomer, unassigned) [2-6 isomer 1], the EC50 is 186 nM in test [1], more than 20000 nM in test [2], more than 20000 nM in test [3] (setting [5]) and 60.3 nM in test [4]. In addition, the Emax came to 66% in test [1], 11% in test [2], 16% in test [3] and 54% in test [4].

As for `Cc1ccc2c(c1)C1(CCC(N3CCC[C@@H](c4nc(C)no4)C3)CC1)C(=O)N2` (single isomer, unassigned) [22-3 Isomer 1], the EC50 in test [1] is 123 nM; in test [2], more than 20000 nM; in test [3] (setting [5]), more than 20000 nM; in test [4] it was 141 nM. Also, the Emax is 51% in test [1], 17% in test [2], 59% in test [3] and 40% in test [4].

Consider `CCOC(=O)N1CCCN(C2CCC(C#N)(c3cccc(F)c3)CC2)CC1` (mixture of isomers) [3-2 mixture of isomers], for which the EC50 in test [1] is 25.1 nM; in test [2] it was more than 20000 nM; in test [3] (setting [5]) it was more than 20000 nM; in test [4], 74.1 nM. The Emax worked out at 96% in test [1], 7% in test [2], 46% in test [3] and 76% in test [4].

For the molecule `Cc1noc([C@H]2CC[C@@H](NC3CCC(C#N)(c4ccccn4)CC3)C2)n1` (single isomer, unassigned) [19-1 Isomer 2], the EC50 in test [1] is 1740 nM; in test [2] it was more than 20000 nM; in test [3] (setting [5]), more than 20000 nM; in test [4], 224 nM. Moreover, the Emax worked out at 45% in test [1], 21% in test [2], 8% in test [3] and 83% in test [4].

In the case of `CCc1noc(C2CC3(CCN(C4CCC5(CC4)C(=O)Nc4ccccc45)C3)C2)n1` (single isomer, unassigned) [26-3 Isomer 1], the EC50 in test [1] was 93.3 nM; in test [2], more than 20000 nM; in test [3] (setting [5]) it was more than 20000 nM; in test [4], 28.8 nM. Also, the Emax turned out to be 31% in test [1], 11% in test [2], 19% in test [3] and 72% in test [4].

As for `CCOC(=O)N1CCCN(C2CCC(C#N)(c3ccc(F)cc3)CC2)CC1` (mixture of isomers) [3-3 mixture of isomers], the EC50 was 9.77 nM in test [1], more than 20000 nM in test [2], more than 20000 nM in test [3] (setting [5]) and 63.1 nM in test [4]. Besides, the Emax in test [1] is 101%; in test [2], 38%; in test [3] it was 35%; in test [4], 85%.

Take `CCOC(=O)N[C@H]1CCN(C2CCC(C#N)(c3ccc(F)cn3)CC2)C1` (single isomer, unassigned) [1-14 Isomer 2]: the EC50 was 123 nM in test [1], more than 20000 nM in test [2], more than 20000 nM in test [3] (setting [5]) and more than 20000 nM in test [4]. For the same molecule, the Emax was 89% in test [1], 2% in test [2], 0% in test [3] and 32% in test [4].

Take `Cc1noc(C2CC2CNC2CCC3(CC2)C(=O)Nc2ccccc23)n1` (single isomer, unassigned) [23-1 Isomer 1]: the figures for the EC50 in test [1], in test [3] (setting [5]) and in test [4] were 347 nM, more than 20000 nM and 251 nM, respectively. Moreover, the Emax is 113% in test [1], 8% in test [3] and 78% in test [4].

With `CC(=O)OCC[N+](C)(C)C` [ACh], the “M3 % Emax cf. ACh” value in test [3] (CHO cells stably expressing human M3, Emax relative to ACh) is on record as 115%. In test [4], the “M4 % Emax cf. ACh” value was 110%.

As to `C/C=C/C(=O)N1CCCN(C2CCC3(CC2)C(=O)Nc2ccccc23)CC1` (single isomer, unassigned) [4-4 isomer 2], in test [1], the EC50 was 257 nM and the Emax came out at 48%. Further, in test [4], the EC50 was more than 20000 nM and the Emax was 12%.

`CCOC(=O)N[C@H]1CCN(C2CCC3(CC2)C(=O)Nc2ccc(F)cc23)C1` (single isomer, unassigned) [2-8 isomer 1]: the EC50 was 93.3 nM in test [1] and more than 20000 nM in test [4]. In addition, the Emax in test [1] was 59%; in test [4] it was 10%.

The term Emax denotes the greatest response seen or fitted, relative to the assay's reference.
